Reference: ChEMBL document CHEMBL5331134, “Identification of Brain-Penetrant ATP-Competitive mTOR Inhibitors for CNS Syndromes” (J Med Chem, 2023)

Tests used:
[1] = In vivo inhibition of phosphorylation of S6 at serine 240/244 residues in C57BL/6 mouse brain at 3 to 10 mg/kg, po measured after 8 hrs by Western blotting analysis; assay type: organism-based; settings: dose 3-10 mg/kg
[2] = In vivo inhibition of phosphorylation of S6 at serine 240/244 residues in C57BL/6 mouse brain at 30 mg/kg, po measured after 24 hrs by Western blotting analysis; assay type: organism-based
[3] = In vivo inhibition of phosphorylation of AKT at serine 473 residues in C57BL/6 mouse brain at 10 mg/kg, po measured after 8 hrs by Western blotting analysis; assay type: organism-based
[4] = In vivo inhibition of phosphorylation of AKT at serine 473 residues in C57BL/6 mouse brain at 30 mg/kg, po measured after 24 hrs by Western blotting analysis; assay type: organism-based
[5] = Drug concentration in C57BL/6 mouse brain at 1 mg/kg, po measured after 1 hr; assay type: ADME, organism-based; settings: read-out: Ct
[6] = Drug concentration in C57BL/6 mouse brain at 3 mg/kg, po measured after 1 hr; assay type: ADME, organism-based; settings: read-out: Ct
[7] = Ratio of drug concentration in brain to plasma in C57BL/6 mouse at 3 mg/kg, po measured at 1 hr; assay type: ADME, organism-based; settings: read-out: BPR
[8] = Drug concentration in C57BL/6 mouse brain at 1 mg/kg, po measured after 3 hrs; assay type: ADME, organism-based; settings: read-out: Ct
[9] = Drug concentration in C57BL/6 mouse plasma at 1 mg/kg, po measured after 3 hrs; assay type: ADME, organism-based
[10] = Ratio of drug concentration in brain to plasma in C57BL/6 mouse at 1 mg/kg, po measured at 3 hrs; assay type: ADME, organism-based; settings: read-out: BPR
[11] = Drug concentration in C57BL/6 mouse brain at 3 mg/kg, po measured after 3 hrs; assay type: ADME, organism-based; settings: read-out: Ct
[12] = Drug concentration in C57BL/6 mouse plasma at 3 mg/kg, po measured after 3 hrs; assay type: ADME, organism-based
[13] = Ratio of drug concentration in brain to plasma in C57BL/6 mouse at 3 mg/kg, po measured at 3 hrs; assay type: ADME, organism-based; settings: read-out: BPR
[14] = Drug concentration in C57BL/6 mouse brain at 1 mg/kg, po measured after 8 hrs; assay type: ADME, organism-based; settings: read-out: Ct
[15] = Drug concentration in C57BL/6 mouse plasma at 1 mg/kg, po measured after 8 hrs; assay type: ADME, organism-based
[16] = Drug concentration in C57BL/6 mouse brain at 3 mg/kg, po measured after 8 hrs; assay type: ADME, organism-based; settings: read-out: Ct
[17] = Drug concentration in C57BL/6 mouse plasma at 3 mg/kg, po measured after 8 hrs; assay type: ADME, organism-based
[18] = Drug concentration in C57BL/6 mouse brain at 10 mg/kg, po measured after 8 hrs; assay type: ADME, organism-based; settings: read-out: Ct
[19] = Drug concentration in C57BL/6 mouse plasma at 10 mg/kg, po measured after 8 hrs; assay type: ADME, organism-based
[20] = Ratio of drug concentration in brain to plasma in C57BL/6 mouse at 10 mg/kg, po measured at 8 hrs; assay type: ADME, organism-based; settings: read-out: BPR
[21] = Drug concentration in C57BL/6 mouse brain at 30 mg/kg, po measured after 8 hrs; assay type: ADME, organism-based; settings: read-out: Ct
[22] = Drug concentration in C57BL/6 mouse plasma at 30 mg/kg, po measured after 8 hrs; assay type: ADME, organism-based
[23] = Ratio of drug concentration in brain to plasma in C57BL/6 mouse at 30 mg/kg, po measured at 8 hrs; assay type: ADME, organism-based; settings: read-out: BPR
[24] = Ratio of drug concentration in brain to plasma in C57BL/6 mouse at 1 mg/kg, po measured after 24 hrs; assay type: ADME, organism-based; settings: read-out: BPR
[25] = Drug concentration in C57BL/6 mouse brain at 3 mg/kg, po measured after 24 hrs; assay type: ADME, organism-based; settings: read-out: Ct
[26] = Drug concentration in C57BL/6 mouse plasma at 3 mg/kg, po measured after 24 hrs; assay type: ADME, organism-based
[27] = Ratio of drug concentration in brain to plasma in C57BL/6 mouse at 3 mg/kg, po measured after 24 hrs; assay type: ADME, organism-based; settings: read-out: BPR
[28] = AUC(0 to t) in cynomolgus monkey at 0.1 mg/kg, iv measured upto 24 hrs by LC/MS/MS analysis; assay type: ADME, organism-based, Macaca fascicularis; design: dose 0.1 mg/kg, time < 24 hrs, route iv; settings: in vivo
[29] = Cmax in cynomolgus monkey at 1 mg/kg, po measured upto 24 hrs by LC/MS/MS analysis; assay type: ADME, organism-based, Macaca fascicularis; design: time < 24 hrs, dose 1 mg/kg, route po; settings: in vivo
[30] = AUC(0 to t) in cynomolgus monkey at 1 mg/kg, po measured upto 24 hrs by LC/MS/MS analysis; assay type: ADME, organism-based, Macaca fascicularis; design: time < 24 hrs, dose 1 mg/kg, route po; settings: in vivo
[31] = Tmax in cynomolgus monkey at 1 mg/kg, po and 0.1 mg/kg, iv measured upto 24 hrs by LC/MS/MS analysis; assay type: ADME, organism-based, Macaca fascicularis; settings: in vivo
[32] = Bioavailability in cynomolgus monkey at 1 mg/kg, po and 0.1 mg/kg, iv measured upto 24 hrs by LC/MS/MS analysis; assay type: ADME, organism-based, Macaca fascicularis; settings: in vivo
[33] = Volume of distribution at steady state in cynomolgus monkey at 1 mg/kg, po and 0.1 mg/kg, iv measured upto 24 hrs by LC/MS/MS analysis; assay type: ADME, organism-based, Macaca fascicularis; settings: in vivo
[34] = MRT(0 to t) in cynomolgus monkey at 1 mg/kg, po and 0.1 mg/kg, iv measured upto 24 hrs by LC/MS/MS analysis; assay type: ADME, organism-based, Macaca fascicularis; settings: in vivo
[35] = Phototoxicity against mouse BALB/3T3 clone A31 cells assessed as photo-irradiation factor incubated for 1 hr followed by irradiated with 5 J/cm^2 of light dose measured after 24 hrs by neutral red uptake assay; assay type: toxicity, cell-based; settings: balb/3t3 clone a31, 1 h
[36] = Clearance in C57BL/6 mouse at 1 mg/kg, iv and 3 mg/kg, ip measured upto 24 hrs by HPLC-MS analysis; assay type: ADME, organism-based; settings: in vivo
[37] = In vivo inhibition of phosphorylation of S6 at serine 240/244 residues in C57BL/6 mouse brain at 10 to 30 mg/kg, po measured after 1 to 3 hrs by Western blotting analysis; assay type: organism-based; settings: dose lower 10 mg/kg, time lower 1 hrs, dose upper 30 mg/kg, time upper 3 hrs
[38] = In vivo inhibition of phosphorylation of AKT at serine 473 residues in C57BL/6 mouse brain at 10 to 30 mg/kg, po measured after 24 hrs by Western blotting analysis; assay type: organism-based; settings: dose 10-30 mg/kg
[39] = AUC(0 to t) in Beagle dog at 0.3 mg/kg, iv measured upto 24 hrs by LC/MS/MS analysis; assay type: ADME, organism-based, Canis lupus familiaris; design: time < 24 hrs, dose 0.3 mg/kg, route iv; settings: in vivo
[40] = Cmax in Beagle dog at 1 mg/kg, po measured upto 24 hrs by LC/MS/MS analysis; assay type: ADME, organism-based, Canis lupus familiaris; design: dose 1 mg/kg, time < 24 hrs, route po; settings: in vivo
[41] = Tmax in Beagle dog at 1 mg/kg, po and 0.3 mg/kg, iv measured upto 24 hrs by LC/MS/MS analysis; assay type: ADME, organism-based, Canis lupus familiaris; settings: in vivo
[42] = Bioavailability in Beagle dog at 1 mg/kg, po and 0.3 mg/kg, iv measured upto 24 hrs by LC/MS/MS analysis; assay type: ADME, organism-based, Canis lupus familiaris; settings: in vivo
[43] = Half life in Beagle dog at 1 mg/kg, po and 0.3 mg/kg, iv measured upto 24 hrs by LC/MS/MS analysis; assay type: ADME, organism-based, Canis lupus familiaris; settings: in vivo
[44] = MRT(0 to t) in Beagle dog at 1 mg/kg, po and 0.3 mg/kg, iv measured upto 24 hrs by LC/MS/MS analysis; assay type: ADME, organism-based, Canis lupus familiaris; settings: in vivo

Compound: C[C@@H]1COCCN1c1cc(N2CCOC[C@@H]2C)nc2[nH]c(-c3cscn3)nc12
- inhibition (INH) [1]: Active
- inhibition (INH) [2]: Active
- inhibition (INH) [3]: Active
- inhibition (INH) [4]: Active
- concentration at 1 h [5]: 388 nM
- concentration at 1 h [6]: 1400 nM
- Kp at 1 h [7]: 0.51
- concentration at 3 h [8]: 240 nM
- concentration at 3 h [9]: 674 nM
- Kp at 3 h [10]: 0.36
- concentration at 3 h [11]: 930 nM
- concentration at 3 h [12]: 2050 nM
- Kp at 3 h [13]: 0.45
- concentration at 8 h [14]: 90 nM
- concentration at 8 h [15]: 246 nM
- concentration at 8 h [16]: 341 nM
- concentration at 8 h [17]: 1190 nM
- concentration at 8 h [18]: 230 nM
- concentration at 8 h [19]: 406 nM
- Kp at 8 h [20]: 0.57
- concentration at 8 h [21]: 462 nM
- concentration at 8 h [22]: 632 nM
- Kp at 8 h [23]: 0.73
- Kp at 24 h [24]: 1.91
- concentration at 24 h [25]: 5 nM
- concentration at 24 h [26]: 6 nM
- Kp at 24 h [27]: 0.84
- AUC(0-t) at 24 h [28]: 0.34 µM·h
- Cmax [29]: 468 nM
- AUC(0-t) at 24 h [30]: 3.75 µM·h
- Tmax [31]: 1.2 h
- bioavailability [32]: 110%
- Vdss [33]: 3 L/kg
- MRT last at 24 h [34]: 4.2 h

Compound: C[C@@H]1COCCN1c1cc(N2CCOC[C@@H]2C)nc2[nH]c(-c3ccccn3)nc12
- Activity [35]: 1
- clearance [36]: 19 mL/min/kg
- inhibition (INH) [37]: Active
- inhibition (INH) [38]: Not Active
- AUC(0-t) at 24 h [39]: 0.147 µM·h
- Cmax [40]: 34 nM
- Tmax [41]: 0.8 h
- bioavailability [42]: 11%
- half-life [43]: 1.9 h
- MRT last at 24 h [44]: 0.9 h
